{"source": "patent US20250295639A1", "about": "“METHODS FOR TREATING HEART DISEASES” (Cytokinetics, Incorporated, priority 2024, published 2025)", "format_in_all_cases": "in vivo, human", "key": {"[1]": {"tested_on": "patients with symptomatic oHCM", "assay": "SEQUOIA-HCM secondary analysis: global remodelling response across five domains", "procedure": "SEQUOIA-HCM recruited patients with symptomatic oHCM (New York Heart Association [NYHA]≥class 2, baseline pVO2 of ≤90% of predicted, respiratory exchange ratio [RER] of ≥1.05). Patients were randomized 1:1 to aficamten (5-20 mg daily) or placebo, and doses were adjusted during the first 6 weeks to achieve relief from obstruction (LVOT-G<30 mmHg) while maintaining left ventricular ejection fraction (LVEF) ≥50%, for 24 weeks. In this secondary analysis, remodelling response was assessed across five domains including: 1) left atrial volume index (LAVI) graded as normal (16-34 mL/m^2), mild (35-41 mL/m^2), moderate (42-48 mL/m^2), severe enlargement (>48 mL/m^2); 2) presence of left ventricular hypertrophy (LVH) with strain pattern on electrocardiogram (EKG) assessed by core lab, 3) Hyperdynamic (≥72) LVEF by core lab; 4)N-terminal brain natriuretic peptide (NT-proBNP) improvement of ≥50%, and; and 5) decrease of maximal wall thickness (MWT) ≥1.5 mm."}, "[2]": {"tested_on": "patients with symptomatic oHCM", "assay": "SEQUOIA-HCM: patient-reported health status KCCQ-OSS and SAQ-SS", "procedure": "Effect of Aficamten on Patient-Reported Health Status in Obstructive Hypertrophic Cardiomyopathy. Participants were randomized to aficamten or placebo with standard-of-care therapy for 24 weeks followed by a 4-week washout period. The Kansas City Cardiomyopathy Questionnaire (KCCQ) and Seattle Angina Questionnaire (SAQ) were administered at each study visit. Changes in mean KCCQ Overall Summary score (KCCQ-OSS) and SAQ Summary score (SAQ-SS) from baseline to week 24 were compared by treatment group using linear regression, adjusting for randomization strata. Proportions of patients with clinically important changes were compared."}, "[3]": {"tested_on": "patients with symptomatic oHCM", "assay": "SEQUOIA-HCM cardiovascular magnetic resonance (CMR) substudy", "settings": "Echo Measurements; CMR Cohort N = 57 (Aficamten N = 25); Week 24"}, "[4]": {"tested_on": "patients with symptomatic oHCM", "assay": "SEQUOIA-HCM: cardiac biomarkers NT-proBNP and hs-cTnI", "description": "A further exploratory objective of this trial was to evaluate the effect of aficamten on biomarker levels, as determined by changes from baseline values in NT-pro-BNP, hs-cardiac-TnI and other biomarkers through Week 24. Cardiac biomarkers. Aficamten treatment led to an immediate and significant reduction in both NT-proBNP and hs-cTnI, with substantial lowering of both biomarkers by week 2. […] Biomarker lowering persisted to week 24 when the relative reduction from baseline was-80% (95% CI-83%, −77%, p<0.001) in NT-proBNP and −43% (−49%, […], p<0.001) in hs-cTnI. […] Serum levels of NT-proBNP decreased from baseline to week 24 from 735 (604, 894) ng/L to 143 (120, 171) ng/L in patients receiving aficamten and remained unchanged from 710 (587, 859) ng/L to 717 (596, 863) ng/L in those receiving placebo, while hs-troponin decreased from 17.1 (14.1, 20.8) ng/L to 9.5 (8.0, 11.3) ng/L with aficamten and remained unchanged from 16.6 (13.3, 20.7) to 16.5 (13.7, 19.9) ng/L in placebo (P<0.001 for both comparisons compared to placebo). […] In contrast hs-cTnI reduction reflected 3% (−18%, 30%) of aficamten's effect on pVO2."}, "[5]": {"tested_on": "patients with symptomatic oHCM", "assay": "SEQUOIA-HCM: eligibility for septal reduction therapy (SRT)", "settings": "aficamten (32 eligible at entry)", "description": "Eligibility for Septal Reduction Therapy (SRT). At study entry, 61 (22%) patients with oHCM were eligible for SRT based on guideline criteria (LV outflow gradient ≥50 mmHg at rest or Valsalva and NYHA class III or IV), of which 32 (23%) were assigned to aficamten and 29 (20%) to placebo. By week 12, 32 (100%) patients treated with aficamten were no longer guideline-eligible for SRT vs. 7 (24%) patients treated with placebo (P<0.001). At week 24, 28 (88%) patients treated with aficamten were no longer guideline-eligible for SRT vs. 15 (52%) on placebo (P<0.002)."}, "[6]": {"settings": "aficamten arm, week 28 compared with week 24"}}}
{"smiles": "CCc1nc(-c2ccc3c(c2)CC[C@H]3NC(=O)c2cnn(C)c2)no1", "note": "[aficamten, (R)—N-(5-(5-ethyl-1,2,4-oxadiazol-3-yl)-2,3-dihydro-1H-inden-1-yl)-1-methyl-1H-pyrazole-4-carboxamide]", "values": [{"measurement": "patients with beneficial remodelling in at least one of five domains", "setting": "[1]; 142 aficamten treated patients", "result": 84, "unit": "%"}, {"measurement": "patients with decrease by ≥50% in NT-proBNP", "setting": "[1]; aficamten", "result": 81.7, "unit": "%"}, {"measurement": "patients with improvement in MWT (decrease ≥1.5 mm)", "setting": "[1]; aficamten", "result": 47.9, "unit": "%"}, {"measurement": "patients with resolution of hyperdynamic LVEF", "setting": "[1]; aficamten", "result": 35.2, "unit": "%"}, {"measurement": "reduction in prevalence of LVH with strain pattern on EKG, patients", "setting": "[1]; aficamten", "result": 19.0, "unit": "%"}, {"measurement": "patients with improvement by one category in LAVI", "setting": "[1]; among patients with abnormal LAVI (>34 mL/m^2) at baseline, 44/94", "result": 46.8, "unit": "%"}, {"measurement": "number needed to treat to achieve beneficial remodelling", "setting": "[1]; vs placebo", "result": 2.2}, {"measurement": "change in KCCQ-OSS after treatment withdrawal", "setting": "[2]; [6]", "result": "−16.2±19.0"}, {"measurement": "change in SAQ-OSS after treatment withdrawal", "setting": "[2]; [6]", "result": "−17.4±21.4"}, {"measurement": "24-week improvement in KCCQ-OSS (mean±SD)", "setting": "[2]; aficamten group", "result": "13.3±16.3"}, {"measurement": "24-week improvement in SAQ-SS (mean±SD)", "setting": "[2]; aficamten group", "result": "11.6±17.4"}, {"measurement": "patients with very large improvements (≥20 points) in KCCQ-OSS", "setting": "[2]; aficamten-treated, week 24", "result": 29.7, "unit": "%"}, {"measurement": "patients with very large improvements (≥20 points) in SAQ-SS", "setting": "[2]; aficamten-treated, week 24", "result": 31.2, "unit": "%"}, {"measurement": "heterogeneity of treatment benefit (KCCQ-OS, SAQ-SS) across subgroups incl. beta-blocker use at baseline", "setting": "[2]; human, in vivo", "result": "No heterogeneity of treatment benefit"}, {"measurement": "SAQ-SS improvement with aficamten", "setting": "[2]; subgroup baseline SAQ-SS 75-100", "result": 4.2}, {"measurement": "greater change with aficamten in SAQ-SS", "setting": "[2]; subgroup baseline SAQ-SS<50", "result": 15.6, "unit": "points"}, {"measurement": "very large improvement in KCCQ-OSS, NNT", "setting": "[2]; vs placebo", "result": 5.8}, {"measurement": "very large improvement in SAQ-SS, NNT", "setting": "[2]; vs placebo", "result": 5.8}, {"measurement": "LV Mass Index", "setting": "[3]", "result": "120 ± 32", "unit": "g/m2"}, {"measurement": "hs-cTnI relative reduction from baseline", "setting": "[4]; Week 24", "result": "−43", "unit": "%"}, {"measurement": "patients with 50% relative reduction in hs-troponin", "setting": "[4]; aficamten group, week 24", "result": 31, "unit": "%"}, {"measurement": "patients with ≥50% reduction in NT-proBNP relative to baseline", "setting": "[4]; aficamten group, week 24", "result": 84, "unit": "%"}, {"measurement": "hs-troponin level", "setting": "[4]; aficamten, week 24, baseline 17.1 (14.1, 20.8)", "result": "9.5 (8.0, 11.3) ng/L"}, {"measurement": "serum level of NT-proBNP", "setting": "[4]; aficamten, week 24, baseline 735 (604, 894)", "result": "143 (120, 171) ng/L"}, {"measurement": "NT-proBNP and hs-cTnI concentrations after cessation of aficamten", "setting": "[4]; after the treatment period", "result": "returning to baseline values"}, {"measurement": "NT-proBNP reduction", "setting": "[4]; week 8", "result": 79, "unit": "%"}, {"measurement": "hs-cTnI reduction", "setting": "[4]; week 8", "result": 41, "unit": "%"}, {"measurement": "SRT-eligible patients no longer guideline-eligible for SRT", "setting": "[5]; week 12", "result": 100, "unit": "%"}, {"measurement": "SRT-eligible patients no longer guideline-eligible for SRT", "setting": "[5]; week 24", "result": 88, "unit": "%"}]}
